Assay: xn = mol fraction of the nth substance listed

Nc1ccccc1Cl + Clc1cccc(Cl)c1
viscosity [mPa·s], 101 kPa
Details	x1 = 0.1088	x1 = 0.2155	x1 = 0.3202	x1 = 0.4228	x1 = 0.5235	x1 = 0.6224	x1 = 0.7194	x1 = 0.8147	x1 = 0.9082
303.15 K	1.108	1.292	1.499	1.732	1.994	2.288	2.615	2.979	3.382
308.15 K	1.043	1.211	1.398	1.607	1.84	2.098	2.382	2.695	3.038
313.15 K	0.9857	1.138	1.308	1.496	1.703	1.931	2.179	2.45	2.743
318.15 K	0.9257	1.066	1.222	1.392	1.579	1.781	2.001	2.237	2.491

Cc1ccc(O)cc1 + c1ccccc1
308.15 K, 101 kPa
Details	viscosity [mPa·s]
x1 = 0.0751	0.6025
x1 = 0.1778	0.749
x1 = 0.292	0.9762
x1 = 0.4109	1.327
x1 = 0.532	1.87
x1 = 0.6653	2.706
x1 = 0.7851	4.175
x1 = 0.8374	4.963
x1 = 0.9459	7.462

Cc1cccc(C)c1 + c1ccccc1
viscosity [mPa·s], 101 kPa
Details	x1 = 0.0977	x1 = 0.2098	x1 = 0.2979	x1 = 0.4028	x1 = 0.5018	x1 = 0.5981	x1 = 0.7046	x1 = 0.8007	x1 = 0.898
303 K	0.5478	0.5424	0.5393	0.5373	0.5342	0.5374	0.536	0.5395	0.5417
313 K	0.4793	0.4781	0.4769	0.4767	0.4789	0.4796	0.4818	0.4843	0.4875
323 K	0.4302	0.4308	0.4285	0.4291	0.4307	0.4342	0.4361	0.4397	0.443

Cc1cccc(C)c1 + ClC(Cl)Cl
298.15 K, 101 kPa
Details	viscosity [mPa·s]
x2 = 0.2254	0.5977
x2 = 0.4357	0.6026
x2 = 0.4615	0.6004
x2 = 0.5258	0.5981
x2 = 0.5786	0.5938
x2 = 0.6284	0.593
x2 = 0.6945	0.5876
x2 = 0.7272	0.5844

NCCCO + CC(C)CO
293.15 K, 101 kPa
Details	viscosity [mPa·s]
x1 = 0.501	13.95
x1 = 0.7008	21.85

NCCCO + CCCCCCn1cc[n+](C)c1.F[B-](F)(F)F
101 kPa
Details	viscosity [mPa·s]
303.15 K, x2 = 0.3217	34.55
308.15 K, x2 = 0.4942	36.45

Cc1ccc(O)cc1 + CC(=O)c1ccccc1
303.15 K, 101 kPa
Details	viscosity [mPa·s]
x2 = 0.1137	10.7
x2 = 0.1526	10.25
x2 = 0.3364	8.205
x2 = 0.426	7.246
x2 = 0.4932	6.538
x2 = 0.5636	5.804
x2 = 0.758	3.823
x2 = 0.8099	3.31
x2 = 0.9433	2.026

O=S1(=O)CCCC1 + OCCO
303.15 K, 101 kPa
Details	viscosity [mPa·s]
x1 = 0.0503	11.92
x1 = 0.0993	10.75
x1 = 0.2006	8.926
x1 = 0.2984	7.669
x1 = 0.393	6.857
x1 = 0.4553	6.555
x1 = 0.5015	6.443
x1 = 0.5484	6.443
x1 = 0.6038	6.548
x1 = 0.7048	7.013
x1 = 0.8065	7.683
x1 = 0.9034	8.532
x1 = 0.9426	9.018

Cc1ccc(O)cc1 + C1CCCCC1
viscosity [mPa·s]
Details	101 kPa	101.33 kPa
303.15 K, x2 = 0.1014	7.352	7.352
303.15 K, x2 = 0.1683	5.44	5.44
303.15 K, x2 = 0.3021	4.004	4.004
303.15 K, x2 = 0.3949	2.988	2.988
303.15 K, x2 = 0.5007	2.25	2.25
303.15 K, x2 = 0.6007	1.732	1.732
303.15 K, x2 = 0.7004	1.35	1.35
303.15 K, x2 = 0.7973	1.11	1.1
303.15 K, x2 = 0.8999	0.909	0.909
308.15 K, x1 = 0.0725	0.8571	–
308.15 K, x1 = 0.2007	1.086	–
308.15 K, x1 = 0.3167	1.393	–
308.15 K, x1 = 0.3977	1.673	–
308.15 K, x1 = 0.5218	2.252	–
308.15 K, x1 = 0.6527	3.175	–
308.15 K, x1 = 0.7637	4.421	–
308.15 K, x1 = 0.8681	6.119	–
308.15 K, x1 = 0.9441	7.786	–

C1CC[NH2+]C1.CCCCCCCC(=O)[O-] + CCCCO
viscosity [mPa·s], 101 kPa
Details	x1 = 0.1198	x1 = 0.2524	x1 = 0.3299	x1 = 0.4745	x1 = 0.6187	x1 = 0.7174	x1 = 0.7912	x1 = 0.9269
293.15 K	5.39	10.82	13.21	22.51	34.14	44.35	51.93	65.75
298.15 K	6.9	10.82	–	21.6	30.39	38.92	44.89	57.02
303.15 K	4.75	8.64	11.15	17	24.8	31.23	35.44	45.4
308.15 K	4.32	7.79	10.03	14.95	21.43	26.63	29.97	38.73
313.15 K	3.6	6.6	8.5	13	17.8	21.5	25.3	31.7
